Data reported in ChEMBL document CHEMBL3804824, “5-((3-Amidobenzyl)oxy)nicotinamides as Sirtuin 2 Inhibitors” (J Med Chem, 2016).

How the values were obtained:
in vitro [1] = conditions: dog, MDCK
in vitro [2] = conditions: dog, MDCK; remark: listed apart in the source
in vitro [3] = conditions: dog, MDCK; remark: listed apart in the source
[4] = biological target: NAD-dependent protein deacylase sirtuin-5, mitochondrial (Homo sapiens, UniProt Q9NXA8)
in vitro [5] = conditions: mouse, plasma
Description: Metabolic stability in mouse plasma assessed as parent compound remaining incubated for 6 hrs by LC-MS/MS analysis

in vitro [6] = conditions: mouse, plasma; remark: listed apart in the source
Description: Metabolic stability in mouse plasma assessed as parent compound remaining incubated for 24 hrs by LC-MS/MS analysis

in vitro [7] = conditions: human, plasma
Description: Metabolic stability in human plasma assessed as parent compound remaining incubated for 6 hrs by LC-MS/MS analysis

in vitro [8] = conditions: human, plasma; remark: listed apart in the source
Description: Metabolic stability in human plasma assessed as parent compound remaining incubated for 24 hrs by LC-MS/MS analysis

in vitro [9] = conditions: mouse, microsomes
Description: Half life in mouse liver microsomes at 1 uM by LC-MS/MS analysis in presence of NADPH

in vitro [10] = conditions: human, microsomes
Description: Half life in human liver microsomes at 1 uM by LC-MS/MS analysis in presence of NADPH

[11] = biological target: T1, NAD-dependent protein deacetylase sirtuin-3, mitochondrial (Homo sapiens, UniProt Q9NTG7)
T1 sequence (Q9NTG7 whole entry): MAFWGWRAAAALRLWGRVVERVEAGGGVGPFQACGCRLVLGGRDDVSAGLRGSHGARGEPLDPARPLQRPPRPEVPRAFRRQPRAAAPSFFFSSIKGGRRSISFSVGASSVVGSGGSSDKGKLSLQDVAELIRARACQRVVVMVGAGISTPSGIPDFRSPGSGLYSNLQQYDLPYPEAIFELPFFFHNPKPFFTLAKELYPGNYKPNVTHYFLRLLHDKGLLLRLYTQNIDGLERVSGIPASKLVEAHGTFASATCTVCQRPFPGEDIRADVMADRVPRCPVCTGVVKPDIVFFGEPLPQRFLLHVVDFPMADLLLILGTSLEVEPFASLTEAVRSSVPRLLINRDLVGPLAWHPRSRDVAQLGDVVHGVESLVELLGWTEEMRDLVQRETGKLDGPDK

Chain of NAD-dependent protein deacylase sirtuin-5, mitochondrial (Q9NXA8 whole entry): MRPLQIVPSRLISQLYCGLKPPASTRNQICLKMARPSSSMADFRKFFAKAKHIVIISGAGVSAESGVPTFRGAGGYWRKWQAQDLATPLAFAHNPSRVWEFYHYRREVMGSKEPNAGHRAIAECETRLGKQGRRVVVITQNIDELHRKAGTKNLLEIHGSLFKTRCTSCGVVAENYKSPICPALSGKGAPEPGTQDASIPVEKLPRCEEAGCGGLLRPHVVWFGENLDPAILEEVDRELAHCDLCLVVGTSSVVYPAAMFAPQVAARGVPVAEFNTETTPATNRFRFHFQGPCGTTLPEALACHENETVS

Papp A→B at 3 h, 25 µM (in vitro [1]) | Papp B→A at 3 h, 25 µM (in vitro [2]) | recovery at 3 h, 25 µM (in vitro [3]) | IC50 [4] | remaining at 6 h (in vitro [5]) | remaining at 24 h (in vitro [6]) | remaining at 6 h (in vitro [7]) | remaining at 24 h (in vitro [8]) | half-life at 1 µM (in vitro [9]) | half-life at 1 µM (in vitro [10]) | IC50 [11] | Structure (SMILES)
3.8 ×10⁻⁶ cm/s | 4.4 ×10⁻⁶ cm/s | > 90% |  |  |  |  |  |  |  |  | NC(=O)c1cncc(Oc2cccc3c(NC(=O)c4ccccc4)cccc23)c1
23 ×10⁻⁶ cm/s | 25 ×10⁻⁶ cm/s | > 90% | > 200 µM | 78% | 25% | 99% | 97% | 0.85 h | 5.5 h |  | NC(=O)c1cncc(OCc2cccc(NC(=O)c3cccnc3)c2)c1
 |  |  |  |  |  |  |  |  |  | > 200 µM | NC(=O)c1cncc(OCc2cccc(NC(=O)C34CC5CC(CC(C5)C3)C4)c2)c1
